# Patent US20150232856A1, “TELOMERASE INHIBITORS FOR USE IN THERAPY” (AGENCY FOR SCIENCE, TECHNOLOGY AND RESEARCH, priority 2012, published 2015)
# What was measured:
# Format in all cases: cell-based, human
# TNFα induced cell death = assay: Cell death assay, TNFα dose response (trypan blue); settings: 2 μM MST-312 prior to TNFα dose response (FIG. 2G)
# Method: G. Cell death assay: 70,000 cells were plated in 12-well plates in duplicates for each condition. Cells were treated with 2 μM MST-312 prior to TNFα dose response. The treatments were done as indicated and all cells (adherent and floating) were collected, mixed with trypan blue and counted by haemocytometer. The number of dead cells is represented as percentage of the total cells.
# Cells were plated 7×10^4 per well of a 12-well plate in duplicates for 24 hrs. They were treated doxorubicin or TNFα for 24 and 48 hrs. Thereafter, all cells in the supernatant as well as adherent were collected from each well and resuspended in equal volume of 1×PBS. The cells were diluted 1:10 in PBS and equal volume of trypan blue dye was added to each sample. […] Cell death is presented as the percentage of dead cells compared to total cells for each well.
# NFκB signalling = NFκB signalling immunoblot in telomerase null VA13 cells; settings: 2 μM MST-312 24 hrs, then 10 ng/ml TNFα time course (FIG. 12A)
# Method: VA13 cells were treated with 2 μM MST-312 or DMSO for 24 hrs followed by stimulation with 10 ng/ml TNFα for the indicated durations.
# A. Phosphorylated and total amounts of proteins were analysed by immunoblotting for the indicated proteins over the time course.
# Total protein was extracted with Totex buffer (20 mM Hepes at pH 7.9, 0.35 M NaCl, 20% glycerol, 1% NP-40, 1 mM MgCl2, 0.5 mM EDTA, 0.1 mM EGTA, 50 mM NaF and 0.3 mM NaVO3) containing a mixture of protease inhibitors (Roche). Immunoblotting was performed with specific antibodies and visualized using ECL western blotting detection kit (Amersham Bioscience).
# p65 [1] = assay: Chromatin immunoprecipitation, p65 binding to NFκB promoters; settings: 2 μM MST-312, 10 ng/ml TNFα 1 hr
# Method: H. Cells were treated with 2 μM MST-312 or DMSO control followed by 10 ng/ml TNFα treatment for 1 hr. The cells were lysed and ChIP was performed using the antibodies indicated.
# I. Bars represent quantification of p65 binding to a subset of NFκB genes by quantitative PCR of ChIP eluates and controls after the indicated treatments.
# J. HeLa cells transfected with 80 nM si-hTERT or si-Cntrl for 65 hrs. Subsequently, these cells were treated with 10 ng/ml of TNFα for 1 hr followed by ChIP with the indicated antibodies.
# ChIP was done from HeLa or A2780cp cells treated with TNFα for 45 or 60 min. Briefly, cells were fixed with 1% formaldehyde and whole cell lysates were sonicated to generate 200-500 bp fragments. Thereafter, the sonicated lysates was used for ChIP with anti-hTERT, anti-p65 or IgG control antibodies. After washing, the protein-DNA crosslinks were reversed and the DNA was eluted in 100 μL and was used for PCRs. GAPDH was used as negative control promoter. For ChIP-western, the IP was done as before, after washing, Laemelli loading dye was added directly to the beads, followed by Immunoblotting for bound proteins. For re-ChIP, first IP was done using anti-p65. After the washing, the ChIP eluate was used for IP again with anti-hTERT or anti IgG antibodies. The eluates from the reChIP were analyzed for binding NFκB dependent promoters by quantitative PCR. […]
# p65 [2] = assay: TNFα stimulated nuclear translocation of p65 (nuclear fractions, immunoblot); settings: HeLa cells, 2 μM MST-312 or si-hTERT, 48 hrs, 10 ng/ml TNFα 30 min (FIG. 17A)
# Method: A. HeLa cells were treated with 2 μM MST-312 (lanes 3-4), DMSO (lanes 1-2) or transfected with si-hTERT, si-Cntrl (Lanes 5-8) or infected with TT, Cntrl virus (Lanes 9-12) as indicated. 48 hrs later, cells were stimulated with 10 ng/ml TNFα for 30 min followed by fractionation of nuclear and cytosolic fractions.
# The cells were harvested in ice-cold PBS and resuspended in hypotonic lysis buffer (10 mM HEPES pH7.9, 1.5 mM MgCl2, 10 mM KCl, protease and phosphatse inhibitors) and incubated on ice for 4 min. They were, then spun down for 3 min at 4500 rpm and the cytoplasmic fraction aspirated to separate tubes. The pellet was washed with hypotonic buffer once. The nuclear fraction was then lysed in IP lysis (10 mM Tris at pH 8, 170 mM NaCl, 0.5% NP40 and protease inhibitors) buffer on ice for 30 min. The lysate was clarified by centrifugation and 1 mg of each fraction was used for corresponding IP reactions.
compound,measurement,setting,value
"O=C(Nc1cccc(NC(=O)c2cccc(O)c2O)c1)c1cccc(O)c1O [MST-312, N,N′-1,3-Phenylenebis-[2,3-dihydroxy-benzamide]]",TNFα induced cell death,TNFα induced cell death,sensitized cells to TNFα induced cell death
same,p65 phosphorylation or IκBα degradation,NFκB signalling,No changes
same,p65 binding to a subset of NFκB genes,p65 [1],strongly inhibited
same,TNFα stimulated nuclear translocation of p65,p65 [2],did not affect
